Experimental data published in PubChem BioAssay (NCI).
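Cultured in 96-well plates, cells were exposed to test compound for 48 hours across five concentrations. Definition used: TGI = concentration required for complete inhibition of growth.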

How the values were obtained:
Assay in all cases: NCI tumour cell line growth inhibition, 48 h
SK-MEL-2 melanoma = system: SK-MEL-2 melanoma
CCRF-CEM leukemia = system: CCRF-CEM leukemia
HCC-2998 colon = system: HCC-2998 colon
U251 CNS = system: U251 CNS
SF-268 CNS = system: SF-268 CNS
LOX IMVI melanoma = system: LOX IMVI melanoma
SK-OV-3 ovarian = system: SK-OV-3 ovarian
NCI-H23 lung = system: NCI-H23 lung
OVCAR-8 ovarian = system: OVCAR-8 ovarian
XF 498 CNS = system: XF 498 CNS
NCI-H460 lung = system: NCI-H460 lung
OVCAR-5 ovarian = system: OVCAR-5 ovarian
MALME-3M melanoma = system: MALME-3M melanoma
786-0 renal = system: 786-0 renal
UACC-62 melanoma = system: UACC-62 melanoma
DMS 114 small cell lung = system: DMS 114 small cell lung
NCI-H226 lung = system: NCI-H226 lung
OVCAR-3 ovarian = system: OVCAR-3 ovarian
HOP-62 NSCLC = system: HOP-62 NSCLC
MOLT-4 leukemia = system: MOLT-4 leukemia
A498 renal = system: A498 renal
SK-MEL-28 melanoma = system: SK-MEL-28 melanoma
UACC-257 melanoma = system: UACC-257 melanoma
COLO 205 colon = system: COLO 205 colon
LXFL 529 NSCLC = system: LXFL 529 NSCLC
KM20L2 colon = system: KM20L2 colon
CAKI-1 renal = system: CAKI-1 renal
SNB-78 CNS = system: SNB-78 CNS
M19-MEL melanoma = system: M19-MEL melanoma
RXF 393 renal = system: RXF 393 renal
TK-10 renal = system: TK-10 renal
RXF-631 renal = system: RXF-631 renal
SK-MEL-5 melanoma = system: SK-MEL-5 melanoma
SF-539 CNS = system: SF-539 CNS
A549 NSCLC = system: A549 NSCLC
SN12C renal = system: SN12C renal
SNB-19 CNS = system: SNB-19 CNS
HT29 colon = system: HT29 colon
HCT-15 colon = system: HCT-15 colon
DMS 273 small cell lung = system: DMS 273 small cell lung
SF-295 CNS = system: SF-295 CNS
ACHN renal = system: ACHN renal
M14 melanoma = system: M14 melanoma
HL-60(TB) leukemia = system: HL-60(TB) leukemia
DLD-1 colon = system: DLD-1 colon
SNB-75 CNS = system: SNB-75 CNS
EKVX NSCLC = system: EKVX NSCLC
NCI-H522 lung = system: NCI-H522 lung
KM12 colon = system: KM12 colon
UO-31 renal = system: UO-31 renal
SR leukemia = system: SR leukemia
HCT-116 colon = system: HCT-116 colon
K-562 leukemia = system: K-562 leukemia
OVCAR-4 ovarian = system: OVCAR-4 ovarian
IGROV1 ovarian = system: IGROV1 ovarian
HOP-18 NSCLC = system: HOP-18 NSCLC
SW-620 colon = system: SW-620 colon
P388/ADR leukemia = system: P388/ADR leukemia
MCF7 breast = system: MCF7 breast
HOP-92 NSCLC = system: HOP-92 NSCLC
RPMI-8226 leukemia = system: RPMI-8226 leukemia
NCI/ADR-RES ovarian = system: NCI/ADR-RES ovarian
SN12K1 renal = system: SN12K1 renal

`CCSC1(SCC)CCN(C=NC(C)(C)C)C1` was tested, and the TGI (SK-MEL-2 melanoma) was > 100 µM, the TGI (CCRF-CEM leukemia) was > 100 µM and the TGI (HCC-2998 colon) was > 100 µM. For the same molecule, the TGI (U251 CNS) was > 100 µM, the TGI (SF-268 CNS) was > 100 µM and the TGI (LOX IMVI melanoma) was > 100 µM. The TGI (SK-OV-3 ovarian) was > 100 µM, the TGI (NCI-H23 lung) was > 100 µM and the TGI (OVCAR-8 ovarian) was > 100 µM. For the same molecule, the TGI (XF 498 CNS) was > 100 µM, the TGI (NCI-H460 lung) was > 100 µM and the TGI (OVCAR-5 ovarian) was > 100 µM. The TGI (MALME-3M melanoma) was > 100 µM, the TGI (786-0 renal) was > 100 µM and the TGI (UACC-62 melanoma) was > 100 µM. For the same molecule, the TGI (DMS 114 small cell lung) was > 100 µM, the TGI (NCI-H226 lung) was > 100 µM and the TGI (OVCAR-3 ovarian) was > 100 µM. For the same molecule, the TGI (HOP-62 NSCLC) was > 100 µM, the TGI (MOLT-4 leukemia) was > 100 µM and the TGI (A498 renal) was > 100 µM. For the same molecule, the TGI (SK-MEL-28 melanoma) was > 100 µM, the TGI (UACC-257 melanoma) was > 100 µM and the TGI (COLO 205 colon) was > 100 µM. For the same molecule, the TGI (LXFL 529 NSCLC) was > 100 µM, the TGI (KM20L2 colon) was > 100 µM and the TGI (CAKI-1 renal) was > 100 µM. The TGI (SNB-78 CNS) was > 100 µM, the TGI (M19-MEL melanoma) was > 100 µM and the TGI (RXF 393 renal) was > 100 µM. For the same molecule, the TGI (TK-10 renal) was > 100 µM, the TGI (RXF-631 renal) was > 100 µM and the TGI (SK-MEL-5 melanoma) was > 100 µM. The TGI (SF-539 CNS) was > 100 µM, the TGI (A549 NSCLC) was > 100 µM and the TGI (SN12C renal) was > 100 µM. The TGI (SNB-19 CNS) was > 100 µM, the TGI (HT29 colon) was > 100 µM and the TGI (HCT-15 colon) was > 100 µM. The TGI (DMS 273 small cell lung) was > 100 µM, the TGI (SF-295 CNS) was > 100 µM and the TGI (ACHN renal) was > 100 µM. For the same molecule, the TGI (M14 melanoma) was > 100 µM, the TGI (HL-60(TB) leukemia) was > 100 µM and the TGI (DLD-1 colon) was > 100 µM. The TGI (SNB-75 CNS) was > 100 µM, the TGI (EKVX NSCLC) was > 100 µM and the TGI (NCI-H522 lung) was > 100 µM. For the same molecule, the TGI (KM12 colon) was > 100 µM, the TGI (UO-31 renal) was > 100 µM and the TGI (SR leukemia) was > 100 µM. For the same molecule, the TGI (HCT-116 colon) was > 100 µM, the TGI (K-562 leukemia) was > 100 µM and the TGI (OVCAR-4 ovarian) was > 100 µM. For the same molecule, the TGI (IGROV1 ovarian) was > 100 µM, the TGI (HOP-18 NSCLC) was > 100 µM and the TGI (SW-620 colon) was 53.2 µM.
`COC1/C=C\C=C(/C)C(=O)NC2=CC(=O)C=C(C2=O)C(OC)C(C)CC(OC)C(OC)C(C)/C=C(/C)C1OC(N)=O` (stereo not given) gave a TGI (SK-MEL-2 melanoma) of 20.5 µM, a TGI (CCRF-CEM leukemia) of 1.85 µM and a TGI (HCC-2998 colon) of 15.9 µM. The TGI (P388/ADR leukemia) was 3.47 µM, the TGI (U251 CNS) was 25.8 µM and the TGI (SF-268 CNS) was 26.6 µM. It also gave a TGI (LOX IMVI melanoma) of 13.8 µM, a TGI (SK-OV-3 ovarian) of 27.8 µM and a TGI (NCI-H23 lung) of 16 µM. The TGI (MCF7 breast) was 8.37 µM, the TGI (OVCAR-8 ovarian) was 5.62 µM and the TGI (XF 498 CNS) was 4.83 µM. For the same molecule, the TGI (NCI-H460 lung) was 27.2 µM, the TGI (OVCAR-5 ovarian) was 28.8 µM and the TGI (MALME-3M melanoma) was 0.826 µM. The TGI (UACC-62 melanoma) was 15.7 µM, the TGI (DMS 114 small cell lung) was 10.1 µM and the TGI (NCI-H226 lung) was 37 µM. For the same molecule, the TGI (OVCAR-3 ovarian) was 7.23 µM, the TGI (HOP-62 NSCLC) was 8.05 µM and the TGI (MOLT-4 leukemia) was 1.25 µM. For the same molecule, the TGI (A498 renal) was 28.4 µM, the TGI (SK-MEL-28 melanoma) was 19.8 µM and the TGI (UACC-257 melanoma) was 19.6 µM. The TGI (COLO 205 colon) was 11.4 µM, the TGI (KM20L2 colon) was 17.2 µM and the TGI (CAKI-1 renal) was 26.3 µM. It also gave a TGI (SNB-78 CNS) of 17.2 µM, a TGI (M19-MEL melanoma) of 18 µM and a TGI (SK-MEL-5 melanoma) of 20.9 µM. For the same molecule, the TGI (SF-539 CNS) was 20.4 µM, the TGI (A549 NSCLC) was 32.4 µM and the TGI (SN12C renal) was 19 µM. For the same molecule, the TGI (SNB-19 CNS) was 30.7 µM, the TGI (HT29 colon) was 12.1 µM and the TGI (HCT-15 colon) was 15.4 µM. It also gave a TGI (DMS 273 small cell lung) of 27.3 µM, a TGI (SF-295 CNS) of 35.4 µM and a TGI (HL-60(TB) leukemia) of 0.554 µM. For the same molecule, the TGI (DLD-1 colon) was 8.02 µM, the TGI (SNB-75 CNS) was 31.6 µM and the TGI (EKVX NSCLC) was 20.9 µM. It also gave a TGI (NCI-H522 lung) of 1.1 µM, a TGI (KM12 colon) of 20.1 µM and a TGI (HOP-92 NSCLC) of 4.52 µM. For the same molecule, the TGI (UO-31 renal) was 30 µM, the TGI (HCT-116 colon) was 10.3 µM and the TGI (K-562 leukemia) was 1.44 µM. For the same molecule, the TGI (OVCAR-4 ovarian) was 21.8 µM, the TGI (RPMI-8226 leukemia) was 12.1 µM and the TGI (IGROV1 ovarian) was 26 µM. For the same molecule, the TGI (SW-620 colon) was 2.8 µM, the TGI (NCI/ADR-RES ovarian) was 21.8 µM and the TGI (SN12K1 renal) was 14.7 µM.
For `O=C(CCc1nnc2s/c(=C\c3ccccc3)c(=O)n12)Nc1cc(Cl)ccc1Cl`, the TGI (SK-MEL-2 melanoma) was > 100 µM, the TGI (CCRF-CEM leukemia) was > 100 µM and the TGI (HCC-2998 colon) was > 100 µM. For the same molecule, the TGI (U251 CNS) was > 100 µM, the TGI (SF-268 CNS) was > 100 µM and the TGI (LOX IMVI melanoma) was > 100 µM. The TGI (SK-OV-3 ovarian) was > 100 µM, the TGI (NCI-H23 lung) was > 100 µM and the TGI (OVCAR-8 ovarian) was > 100 µM. For the same molecule, the TGI (XF 498 CNS) was > 100 µM, the TGI (NCI-H460 lung) was > 100 µM and the TGI (OVCAR-5 ovarian) was > 100 µM. The TGI (MALME-3M melanoma) was > 100 µM, the TGI (786-0 renal) was > 100 µM and the TGI (UACC-62 melanoma) was > 100 µM. The TGI (DMS 114 small cell lung) was > 100 µM, the TGI (NCI-H226 lung) was > 100 µM and the TGI (OVCAR-3 ovarian) was > 100 µM. For the same molecule, the TGI (HOP-62 NSCLC) was > 100 µM, the TGI (MOLT-4 leukemia) was > 100 µM and the TGI (A498 renal) was > 100 µM. The TGI (SK-MEL-28 melanoma) was > 100 µM, the TGI (UACC-257 melanoma) was > 100 µM and the TGI (COLO 205 colon) was > 100 µM. The TGI (LXFL 529 NSCLC) was > 100 µM, the TGI (KM20L2 colon) was > 100 µM and the TGI (CAKI-1 renal) was > 100 µM. The TGI (SNB-78 CNS) was > 100 µM, the TGI (M19-MEL melanoma) was > 100 µM and the TGI (RXF 393 renal) was > 100 µM. For the same molecule, the TGI (TK-10 renal) was > 100 µM, the TGI (RXF-631 renal) was > 100 µM and the TGI (SK-MEL-5 melanoma) was > 100 µM. The TGI (SF-539 CNS) was > 100 µM, the TGI (A549 NSCLC) was > 100 µM and the TGI (SN12C renal) was > 100 µM. The TGI (SNB-19 CNS) was > 100 µM, the TGI (HT29 colon) was > 100 µM and the TGI (HCT-15 colon) was > 100 µM. For the same molecule, the TGI (DMS 273 small cell lung) was > 100 µM, the TGI (SF-295 CNS) was > 100 µM and the TGI (ACHN renal) was > 100 µM. The TGI (M14 melanoma) was > 100 µM, the TGI (HL-60(TB) leukemia) was > 100 µM and the TGI (DLD-1 colon) was > 100 µM. For the same molecule, the TGI (SNB-75 CNS) was > 100 µM, the TGI (EKVX NSCLC) was > 100 µM and the TGI (NCI-H522 lung) was > 100 µM. For the same molecule, the TGI (KM12 colon) was > 100 µM, the TGI (HOP-92 NSCLC) was > 100 µM and the TGI (UO-31 renal) was > 100 µM. The TGI (SR leukemia) was > 100 µM, the TGI (HCT-116 colon) was 66.9 µM and the TGI (K-562 leukemia) was > 100 µM. The TGI (OVCAR-4 ovarian) was > 100 µM, the TGI (RPMI-8226 leukemia) was > 100 µM and the TGI (IGROV1 ovarian) was > 100 µM. The TGI (HOP-18 NSCLC) was > 100 µM and the TGI (SW-620 colon) was 23.7 µM.
